Results published in patent US20070112176A1, “Lipid membrane structure containing anti-mt-mmp monoclonal antibody” (DAIICHI PHARMACEUTICAL CO., LTD., priority 2003, published 2007).

System: HT1080 cells
Assay: Cytostatic test of liposomes with various antibody binding ratios, Test Example 6
Assay type: cell-based, human
Settings: control group; free DOX 100 μg/mL, used as start value
Method: According to the method described in Test Example 2-1), the cytostatic ability of various antibody-binding liposomes was evaluated by using the HT1080 cells. The cells were adhered to a 96-well plate, then added with anti-MT1-MMP monoclonal antibody (clone number: 222-1D8)-binding and anticancer agent-encapsulating liposomes (Fab′(222-1D8)-DOX-LP), and cultured for 1 hour. After the culture, the cells were washed, added with a fresh medium, and further cultured for 24 hours. After the cells were washed and cultured for 24 hours, a cell counting assay was performed, and A450 serving as an index of viable cell count was plotted. Means±S.D. (n=4) was indicated for each group. As control, only the medium (control), anticancer agent-encapsulating liposomes not bound with antibody (DOX-LP (Preparation Example (11)) or the anticancer agent alone (free DOX) was added instead of Fab′(222-1D8)-DOX-LP. A group in which only the medium was similarly treated without adding the cells was used as a blank. It was confirmed by multiple times of experiments that the start value used in the calculation of inhibitory rate and the like in Test Example 2 was not substantially different from the absorbance obtained with 100 μg/mL of DOX alone (free DOX) used as the sample, and therefore the value obtained for the 100 μg/mL free DOX group was used as the start value. […]

Q: With COc1cccc2c1C(=O)c1c(O)c3c(c(O)c1C2=O)C[C@@](O)(C(=O)CO)C[C@@H]3O[C@H]1C[C@H](N)[C@H](O)[C@H](C)O1 [Free DOX, doxorubicin] as the molecule, how does the “Cytostatic ratio for HT1080 cells” value read?
A: Its value is 100%.
